In US20080261994A1, “CYCLOPROPANE COMPOUNDS AND PHARMACEUTICAL USE THEREOF” (Japan Tobacco Inc., priority 2003, published 2008):
Read-outs that look alike come from different tables or passages of the source.

How the values were obtained:
Type in all cases: biochemical
[1] = target: T1, aggrecanase-1 (Homo sapiens, UniProt O75173); experiment: Aggrecanase-1 inhibitory action (Particle Assay, GAG release from aggrecan-containing polyacrylamide particles)
T1 sequence (O75173 213-837): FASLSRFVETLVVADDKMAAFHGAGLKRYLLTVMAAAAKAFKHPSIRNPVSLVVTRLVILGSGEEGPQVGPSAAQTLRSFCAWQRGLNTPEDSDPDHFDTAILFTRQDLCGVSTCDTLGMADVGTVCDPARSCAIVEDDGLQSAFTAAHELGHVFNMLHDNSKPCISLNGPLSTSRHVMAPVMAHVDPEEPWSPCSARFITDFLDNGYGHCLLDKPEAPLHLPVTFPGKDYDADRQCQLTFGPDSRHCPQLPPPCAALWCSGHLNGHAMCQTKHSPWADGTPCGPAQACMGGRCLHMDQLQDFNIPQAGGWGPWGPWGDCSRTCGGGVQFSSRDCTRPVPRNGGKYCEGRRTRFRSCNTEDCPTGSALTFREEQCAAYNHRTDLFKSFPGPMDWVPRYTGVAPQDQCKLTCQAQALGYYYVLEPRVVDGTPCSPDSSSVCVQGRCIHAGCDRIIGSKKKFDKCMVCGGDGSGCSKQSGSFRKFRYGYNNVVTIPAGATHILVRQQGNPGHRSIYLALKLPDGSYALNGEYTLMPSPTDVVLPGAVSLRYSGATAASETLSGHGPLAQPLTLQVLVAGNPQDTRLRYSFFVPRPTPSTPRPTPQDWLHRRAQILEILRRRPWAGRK
In short: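 Enzyme and compound incubated with aggrecan-containing polyacrylamide particles in Tris-HCl buffer at 37° C for 15 h. Released GAG in supernatant measured with 1,9-dimethylmethylene blue at 595 nm against chondroitin sulfate standard; % inhibition from enzyme-free and inhibitor-free wells, reported as TC50 (μM).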

[2] = target: T2, Recombinant Human MMP-13 (Homo sapiens, UniProt P45452); experiment: MMP-13 inhibitory activity (MMP-13 specific fluorescent substrate with quencher)
T2 construct: purchased R&D systems 511-MM
In short: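 Recombinant human MMP-13 with test compound, reaction started with quenched fluorogenic peptide 7-MCA-Pro-CHA-Gly-NVal-His-Ala-DPA in Tris-HCl buffer, 1 h at 25 °C, stopped with acetic acid. Fluorescence at Ex 325/Em 405 nm; % inhibition versus enzyme-free and inhibitor-free wells, reported as IC50 (μM).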

[3] = target: T3, MMP-1 (Homo sapiens, UniProt P03956); experiment: MMP-1 inhibitory action (Type I collagen Activity Measurement kit, FITC-labeled collagen type I)
T3 sequence (P03956 100-469): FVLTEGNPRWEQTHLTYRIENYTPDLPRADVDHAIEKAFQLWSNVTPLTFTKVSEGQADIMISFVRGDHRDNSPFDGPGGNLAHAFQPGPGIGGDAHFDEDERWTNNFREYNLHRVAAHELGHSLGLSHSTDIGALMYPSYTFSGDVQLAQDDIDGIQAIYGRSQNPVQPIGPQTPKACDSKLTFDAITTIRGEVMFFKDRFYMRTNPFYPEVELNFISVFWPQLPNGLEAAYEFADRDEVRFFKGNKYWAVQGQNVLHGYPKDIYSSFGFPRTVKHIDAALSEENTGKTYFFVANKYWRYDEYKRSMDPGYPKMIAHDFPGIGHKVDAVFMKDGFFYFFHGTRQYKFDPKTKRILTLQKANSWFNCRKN

[4] = aggrecanase-1 inhibitory action, read-out: IC50 AG1 (Experimental Example 1)
[5] = Recombinant Human MMP-13, fluorescent substrate, 25° C. for 1 h, read-out: IC50 MMP13 (Experimental Example 3)
[6] = MMP-1 inhibitory action, FITC-labeled collagen type I, 37° C. for 3 hr, read-out: IC50 MMP1 (Experimental Example 2)
[7] = Experimental Example 1, read-out: IC50 AG1
[8] = Experimental Example 3, read-out: IC50 MMP13
[9] = Experimental Example 2, read-out: IC50 MMP1

Row | SMILES | IC50 [1, 4] [nM] | IC50 [2, 5] [nM] | IC50 [3, 6] [nM] | IC50 [1, 7] [nM] | IC50 [2, 8] [nM] | IC50 [3, 9] [nM]
1 | CC(=O)N1Cc2ccccc2C2(C1)CC2(NS(=O)(=O)c1ccc(-c2ccc(Cl)cc2)s1)C(=O)O (stereo not drawn) [Example 2-207] | < 1000 | < 1000 | ≥ 10000 |  |  | 
2 | O=C(O)COc1cccc(C2CC2(NS(=O)(=O)c2ccc(-c3ccc(Cl)cc3)cc2)C(=O)O)c1 (stereo not drawn) [Example 1-119] | < 100 | < 100 | ≥ 1000 |  |  | 
3 | O=C(O)C1(NS(=O)(=O)c2ccc(-c3cc(C(F)(F)F)on3)o2)C2CCCc3ccccc3C21 (stereo not drawn) [Example 2-373] |  |  |  | ≥ 1000 | ≥ 1000 | ≥ 10000
4 | COCCN(C)C(=O)c1ccc(C2(CCCOC(C)=O)CC2(NS(=O)(=O)c2ccc(-c3cc(C(F)(F)F)on3)s2)C(=O)O)cc1 (stereo not drawn) [Example 2-271] |  |  |  | ≥ 1000 | < 1000 | ≥ 10000
5 | COCCOCC1(c2ccccc2)CC1(NS(=O)(=O)c1ccc(-c2ccc(Cl)cc2)s1)C(=O)O (stereo not drawn) [Example 2-429] |  |  |  | < 1000 | < 1000 | ≥ 1000
6 | CCCC(=O)c1ccc(S(=O)(=O)NC2(C(=O)O)CC2c2ccccc2)s1 (stereo not drawn) [Example 2-117] | ≥ 10000 | ≥ 10000 | ≥ 10000 |  |  | 
7 | O=C(O)C1(NS(=O)(=O)c2ccc(-c3cc(C(F)(F)F)on3)s2)CC1c1cc(CO)on1 (stereo not drawn) [Example 2-317] |  |  |  | < 1000 | < 1000 | ≥ 1000
8 | C[C@]1(c2ccccc2)C[C@@]1(NS(=O)(=O)c1ccc(-c2ccc(Cl)cc2F)s1)C(=O)O [Example 2-406] |  |  |  | < 100 | < 100 | < 1000
9 | CC(C)N1CCN(Cc2cccc([C@H]3C[C@@]3(NS(=O)(=O)c3ccc(-c4cc(C(F)(F)F)on4)s3)C(=O)O)c2)CC1 [Example 2-304] |  |  |  | < 1000 | < 1000 | ≥ 1000
10 | O=C(NO)C1(NS(=O)(=O)c2ccc(OCc3ccc(Cl)cc3Cl)cc2)C2CCCc3ccccc3C21 (stereo not drawn) [Example 2-390] |  |  |  | < 1000 | ≥ 1000 | ≥ 10000
11 | O=C(O)C1(NS(=O)(=O)c2ccc(-c3cc(C(F)(F)F)on3)s2)C2CCOc3ccccc3C21 (stereo not drawn) [Example 2-370] |  |  |  | < 100 | < 100 | < 1000
12 | COC(=O)Cc1cccc(C2CC2(NS(=O)(=O)c2ccc(-c3cc(C(F)(F)F)on3)s2)C(=O)O)c1 (stereo not drawn) [Example 2-219] | < 1000 | < 100 | ≥ 1000 |  |  | 
13 | O=C(O)C1(NS(=O)(=O)c2cn3cc(-c4ccccc4)nc3s2)CC1c1ccccc1 (stereo not drawn) [Example 2-489] |  |  |  | ≥ 1000 | < 100 | ≥ 10000
14 | CC1(C)CC1(NS(=O)(=O)c1ccc(-c2ccc(Cl)cc2)s1)C(=O)O (stereo not drawn) [Example 2-147] | ≥ 1000 | ≥ 1000 | ≥ 10000 |  |  | 
15 | O=C(O)C1(NS(=O)(=O)c2ccc(-c3ccc(Cl)cc3)s2)CC1c1cccc([N+](=O)[O-])c1 (stereo not drawn) [Example 1-127] | < 100 | < 1000 | ≥ 1000 |  |  | 
16 | C[C@]1(c2ccccc2)C[C@@]1(NS(=O)(=O)c1ccc(-c2ccc(Cl)c(F)c2)s1)C(=O)O [Example 2-434] |  |  |  | < 100 | < 1000 | ≥ 1000
17 | CC1[C@H](c2ccccc2)[C@]1(NS(=O)(=O)c1ccc(-c2nc3ccccc3[nH]2)s1)C(=O)O (stereo partly drawn) [Example 2-584] |  |  |  | < 1000 | < 100 | ≥ 1000
18 | O=C(NO)C1(NS(=O)(=O)c2ccc(OCc3ccc(Cl)cc3Cl)cc2)C2CCc3ccccc3C21 (stereo not drawn) [Example 2-360] |  |  |  | < 100 | < 1000 | ≥ 10000
19 | O=C(NO)C1(NS(=O)(=O)c2ccc(-c3cc(C(F)(F)F)on3)s2)C2CCc3ccccc3C21 (stereo not drawn) [Example 2-486] |  |  |  | < 1000 | < 100 | < 1000
20 | CC1[C@H](c2ccccc2)[C@]1(NS(=O)(=O)c1ccc(-c2nc3ccccc3s2)s1)C(=O)O (stereo partly drawn) [Example 2-591] |  |  |  | ≥ 1000 | < 100 | ≥ 1000
21 | CC1[C@H](c2ccccc2)[C@]1(NS(=O)(=O)c1ccc(-c2cc(C3CC3)on2)s1)C(=O)O (stereo partly drawn) [Example 2-433] |  |  |  | < 100 | < 100 | < 1000
22 | CC(=O)c1cnn(-c2ccc(S(=O)(=O)N[C@@]3(C(=O)O)C(C)[C@@H]3c3ccccc3)s2)c1 (stereo partly drawn) [Example 2-546] |  |  |  | < 100 | < 100 | < 100
23 | O=C(O)C1(NS(=O)(=O)c2ccc(OCc3ccc(Cl)cc3Cl)cc2)C2CCCc3ccccc3C21 (stereo not drawn) [Example 2-363] |  |  |  | ≥ 1000 | < 1000 | ≥ 10000
24 | O=C(O)CCc1ccccc1C1CC1(NS(=O)(=O)c1ccc(-c2ccc(Cl)cc2)s1)C(=O)O (stereo not drawn) [Example 2-179] | < 100 | < 1000 | ≥ 10000 |  |  | 
25 | COCc1cc(-c2ccc(S(=O)(=O)N[C@@]3(C(=O)O)C(C)[C@@H]3c3ccccc3)s2)no1 (stereo partly drawn) [Example 2-404] |  |  |  | < 100 | < 100 | < 1000

Other lines, results leading:

Row | IC50 [1, 4] [nM] | IC50 [2, 5] [nM] | IC50 [3, 6] [nM] | IC50 [1, 7] [nM] | IC50 [2, 8] [nM] | IC50 [3, 9] [nM] | SMILES
26 |  |  |  | < 100 | < 100 | < 1000 | O=C(O)C1(NS(=O)(=O)c2ccc(-c3cc(C(F)(F)F)on3)s2)C2CCc3ccccc3C21 (stereo not drawn) [Example 2-351]
27 | < 100 | < 1000 | ≥ 10000 |  |  |  | O=C(c1cccc(C2CC2(NS(=O)(=O)c2ccc(-c3ccc(Cl)cc3)s2)C(=O)O)c1)N1CCOCC1 (stereo not drawn) [Example 2-73]
28 |  |  |  | ≥ 1000 | < 100 | ≥ 1000 | COc1ccc2[nH]c(-c3ccc(S(=O)(=O)N[C@@]4(C(=O)O)C(C)[C@@H]4c4ccccc4)s3)nc2c1 (stereo partly drawn) [Example 2-607]
29 |  |  |  | < 100 | < 100 | < 1000 | C[C@]1(c2ccccc2)C[C@@]1(NS(=O)(=O)c1ccc2c(c1)Cc1cc(Cl)ccc1-2)C(=O)O [Example 2-568]
30 | < 1000 | < 100 | ≥ 1000 |  |  |  | O=C(O)C1(NS(=O)(=O)c2ccc(-c3ccc(Cl)cc3)cc2)CC1c1cccc(NCc2cnc[nH]2)c1 (stereo not drawn) [Example 1-90]
31 |  |  |  | ≥ 1000 | ≥ 1000 | ≥ 10000 | C[C@]1(c2ccccc2)C[C@@]1(NS(=O)(=O)c1ccc(-c2ccc(F)c(C#N)c2)s1)C(=O)O [Example 2-420]
32 |  |  |  | ≥ 1000 | ≥ 10000 | ≥ 10000 | O=C(O)C1(NS(=O)(=O)c2ccc(-c3cc(C(F)(F)F)on3)s2)CC1c1cc(CO)on1 (stereo not drawn) [Example 2-318]
33 |  |  |  | < 100 | < 1000 | ≥ 1000 | CC1[C@H](c2ccccc2)[C@]1(NS(=O)(=O)c1ccc(-c2cc(C(F)F)no2)s1)C(=O)O (stereo partly drawn) [Example 2-354]
34 |  |  |  | ≥ 1000 | < 1000 | ≥ 10000 | O=C(NO)C1(NS(=O)(=O)c2ccc(-c3ccc(Cl)cc3)s2)C2CCCc3ccccc3C21 (stereo not drawn) [Example 2-391]
35 |  |  |  | ≥ 1000 | ≥ 1000 | ≥ 10000 | O=C(O)[C@]1(NS(=O)(=O)c2ccc(-c3cc(C(F)(F)F)on3)o2)C[C@@H]1c1ccccc1 [Example 2-371]
36 |  |  |  | ≥ 1000 | ≥ 1000 | ≥ 10000 | CC1CCC(c2ccc(S(=O)(=O)N[C@@]3(C(=O)O)C[C@]3(C)c3ccccc3)cc2)CC1 (stereo partly drawn) [Example 2-436]
37 |  |  |  | ≥ 1000 | ≥ 1000 | ≥ 1000 | COc1cc2c(cc1OC)CN(S(=O)(=O)N[C@@]1(C(=O)O)C(C)[C@@H]1c1ccccc1)CC2 (stereo partly drawn) [Example 2-528]
38 | < 100 | < 1000 | ≥ 1000 |  |  |  | O=C(O)C1(NS(=O)(=O)c2ccc(-c3cc(C(F)(F)F)on3)s2)CC1(CCCO)c1ccccc1 (stereo not drawn) [Example 2-248]
39 | < 100 | < 100 | ≥ 10000 |  |  |  | CN1CCN(C(=O)Cc2cccc(C3CC3(NS(=O)(=O)c3ccc(-c4ccc(Cl)cc4)s3)C(=O)O)c2)CC1 (stereo not drawn) [Example 2-191]
40 |  |  |  | ≥ 1000 | ≥ 1000 | ≥ 1000 | CC1[C@H](c2ccccc2)[C@]1(NS(=O)(=O)N1CCN(C(=O)OCc2ccccc2)CC1)C(=O)O (stereo partly drawn) [Example 2-532]
